# Experiment: Cuticle penetration test
# Type: in vitro ADME, apple tree
# Text: This test measures the penetration of active ingredients through enzymatically isolated cuticles of apple tree leaves.
# Leaves that have been cut off apple trees in the developed state and isolated by the method described in Schönherr and Riederer (Schönherr, J., Riederer, M. (1986)) are used. Only the cuticles of the top sides of the leaves that are free of stomata and hair are used further.
# For membrane transport studies, the cuticular membranes thus obtained are placed into stainless steel diffusion cells (=transport chambers). For this purpose, the cuticles are placed with tweezers onto the middle of the silicone grease-smeared edges of the diffusion cells and sealed with a likewise greased ring. The arrangement is chosen such that the morphological outside of the cuticles is directed outward, i.e. toward the air, while the original inside faces the inside of the diffusion cell. The diffusion cells are filled with water or with a mixture of water and solvent and buffered to the physiologically relevant pH of 5.5. The medium in the diffusion cells is supposed to simulate the apoplast, i.e. the natural absorption medium within the leaf. This method is of good suitability for systemic and mechanistic studies with the aim of understanding the effect of the formulations, adjuvants and solvents on penetration of the crop protection compositions.
# The active ingredient concentration corresponds to the field application rate customary in practice. For preparation of the spray liquor the corresponding ingredients in the given amounts are given into tap water and homogenized by mixing.
# After the spray liquors have been applied, the water is allowed to evaporate in each case, then the chambers are inverted and they are placed into thermostated tanks, wherein air at a defined air humidity and temperature is blown onto the outside of the cuticles in each case. The penetration that sets in therefore takes place at a relative air humidity of 56% and a set temperature of 25° C. At regular intervals, an autosampler is used to take samples and the content of penetrated active ingredient is measured by means of HPLC. The numbers reported are average values from 5 to 10 individual measurements in each case.
structure (smiles),measurement,setting,value
O=C1C=C(N(Cc2ccc(Cl)nc2)CC(F)F)CO1 [Flupyradifurone],Penetration after 24 h,"entry 1: spray solution 0.1 g/L Compd I-2 + 0.5 g/L flupyradifurone, no additives, 25° C., 56% r.h.",5.1%
same,Penetration after 24 h,"entry 1: spray solution 0.1 g/L Compd I-2 + 0.5 g/L flupyradifurone, no additives, 25° C., 56% r.h., listed as flupyradifurone","barely any, if any, cuticle penetration"
same,Penetration after 24 h,"entry 2: 0.1 g/L Compd I-2 + 0.5 g/L flupyradifurone + DAHP 1.6 g/L, 25° C., 56% r.h.",29.2%
same,Penetration after 24 h,"entry 3: 0.1 g/L Compd I-2 + 0.5 g/L flupyradifurone + Antarox B/848 1.3 g/L, 25° C., 56% r.h.",73%
same,Penetration after 24 h,"entry 4: 0.1 g/L Compd I-2 + 0.5 g/L flupyradifurone + Antarox B/848 1.3 + DAHP 1.6 g/L, 25° C., 56% r.h.",82.8%
same,Penetration after 24 h,entry 5: as entry 4 + 1.8 g/L Propylenglycolmonomethylether (B) + 1.8 g/L Propylenglycol (C),87.2%
same,Penetration after 24 h,entry 6: as entry 4 + 1.8 g/L Propylenglycolmonomethylether (B) + 1.8 g/L Dipropylenglycol (D),100%
same,Penetration after 24 h,entry 7: as entry 4 + 2.1 g/L Dipropylenglycolmonomethylether (A) + 1.4 g/L Propylenglycolmonomethylether (B),100%
same,Penetration after 24 h,entry 8: as entry 4 + 2.5 g/L Dipropylenglycolmonomethylether (A) + 1.2 g/L Propylenglycol (C),95%

# Source: patent US20230068010A1, “FORMULATION OF INSECTICIDAL MIXTURES COMPRISING GLYCOL ETHER SOLVENTS” (Bayer Aktiengesellschaft, priority 2019, published 2023)
